Results as given in patent publication US20140045744A1, “CULTURED COLLECTION OF GUT MICROBIAL COMMUNITY” (THE WASHINGTON UNIVERSITY, priority 2011, published 2014).

Test system: E. coli MegaX DH10B T1R cells
Format: cell-based, Escherichia coli
Conditions: for MIC: antibiotics used in functional metagenomic selections of E. coli libraries
Excerpt: To compare further the functions represented in the complete and cultured microbiota independent of annotation, antibiotic-resistance genes were captured from their microbiomes in expression vectors in Escherichia coli. Each E. coli library contained ˜1 GB of 1.5- to 4-kB fragments of microbiome DNA subcloned into an expression vector and was screened against a panel of 15 antibiotics and clinically relevant antibiotic combinations (Table 3). Genes encoding resistance to the same 14 antibiotics were captured in libraries prepared from complete and cultured fecal samples (FIG. 3G and Table 4). In one example, a screen for DNA fragments that confer resistance to the aminoglycoside amikacin produced candidate genes from the microbiomes of both complete and cultured microbial communities from Donor 1 but not from Donor 2. Two genes conferring amikacin resistance (either the 16S rRNA methylase rmtD or the aminoglycoside phosphotransferase aphA-3) were identified in 70% of the DNA fragments captured in selections for this phenotype.
DNA fragments from complete and cultured communities were cloned into an expression vector, electroporated into Escherichia coli, and screened for their ability to confer resistance to 15 different antibiotics. To this end, 10 μg of DNA purified from the two human donors' fecal microbiota, from the derived cultured communities, plus pooled contents of the arrayed strain collection were sheared to 1.5- to 4-kB fragments (Bioruptor XL), followed by size selection (1% agarose gel electrophoresis). Sheared DNA then was endrepaired (Epicentre Endlt Kit), column-purified (Qiagen Qia-Quick PCR Purification Kit), and concentrated in a vacuum evaporator (SpeedVac). […] Approximately 500 ng of the DNA fragments were ligated to 100 ng of the linearized vector in an overnight ligation reaction (Epicentre FastLink Ligation Kit). The ligation reaction was desalted by dialysis in double-distilled H2O and electroporated into E. coli MegaX DH10B T1R cells (Invitrogen). After 1 h of recovery, a small (1 μL) aliquot of the library was titered with serial dilutions onto LB agar plates containing 50 μg/mL kanamycin (to select for pZE21 transformants) and incubated at 37° C. for 16 h. The insert size distribution for each library was characterized by gel electrophoresis of amplicons obtained using primers flanking the HincII site in the multiple cloning site of pZE21 MCS1. The total size of each library was estimated by multiplying average insert size by the number of cfu in a given library. The remainder of the recovered cells was inoculated into 10 mL LB containing 50 μg/mL kanamycin and grown overnight, with shaking, at 27° C. for ˜16 h. The culture subsequently was diluted with an equal volume of LB medium containing 30% glycerol and stored at −80° C. before screening.
For functional selections, 100 μL of each library freezer stock (corresponding to 0.5-1×10^8 cfu) was plated on an LB agar plate containing kanamycin (50 μg/mL) plus one of 15 different antibiotics (Table 3). The total number of cells plated on each antibiotic represented ˜10 copies of each original unique transformant. Antibiotic-resistant colonies were scored after plates had been incubated at 37° C. for 16 h. Inserts contained in colonies with amikacin-, piperacillin- and piperacillin/tazobactam-resistant phenotypes were subjected to bidirectional Sanger sequencing (Beckman Coulter Genomics) using primers pZE21—81—104—57C (5′-[…] GGT-3′; SEQ ID NO 5) and pZE21—151—174rc—58C (5′-[…]-3′; SEQ ID NO 6). Resulting reads were trimmed to remove low-quality and vector sequences and subjected to within-library contig assembly (≧200 bp of 97% ID sequence required). Contigs and unassembled reads were mapped by BLAST to the National Center for Biotechnology Information (NCBI) nonredundant database and to a custom database of 122human gutmicrobial genomes. All sequence datasets have been deposited in the NCBI Sequence Read Archive (SRA) under accession no. […]

| Compound | MIC | other results |
| --- | --- | --- |
| O=C(N[C@H](CO)[C@H](O)c1ccc([N+](=O)[O-])cc1)C(Cl)Cl [Cloramphenicol] | 8000 µg/mL | – |
| CN(C)[C@@H]1C(O)=C(C(N)=O)C(=O)[C@@]2(O)C(O)=C3C(=O)c4c(O)cccc4[C@@](C)(O)[C@H]3[C@H](O)[C@@H]12 [Oxytetracyline] | 8000 µg/mL | – |
| CN(C)[C@@H]1C(=O)C(C(N)=O)=C(O)[C@@]2(O)C(=O)C3=C(O)c4c(O)cccc4[C@@](C)(O)[C@H]3C[C@@H]12 [Tetracyline] | 8000 µg/mL | – |
| Gentamicin | 16000 µg/mL | – |
| Penicillin | 128000 µg/mL | – |
| Piperacillin + Tazobactam | – | MIC (mg/mL), PI of PI + TZ (piperacillin part of the combination): 16 mg/mL; MIC (mg/mL), TZ of PI + TZ (tazobactam part of the combination): 4 mg/mL |
| Trimethoprim + Sulfamethoxazole | – | MIC (mg/mL), SX of TR + SX (sulfamethoxazole part of the combination): 38 mg/mL; MIC (mg/mL), TR of TR + SX (trimethoprim part of the combination): 2 mg/mL |
